| melting point | SMILES |
| --- | --- |
| 78 °C | CC(=O)c1sc2ccccc2c1C |
| 136 to 143 °C | CCOC(=O)c1cnc(NCc2ccccc2)s1 |
| 113 °C | Cc1ccc(C(=O)c2nn(-c3ccccc3)/c(=N\N=Cc3ccco3)s2)cc1 |
| 156 °C | O=C(O)COc1ccc2ccccc2c1 |
| 112 °C | OCc1ccc(-c2cccs2)cc1 |
| 276 °C | COc1ccc(/N=N/c2c(N)nn3c(C)cc(=O)[nH]c23)cc1 |
| 144 °C | COc1ccc(C(=O)c2ccc(OC)cc2)cc1 |
| 146 to 148 °C | CCOC1Oc2ccc(C)cc2C(=O)/C1=C/Nc1nc2ccc(Cl)cc2s1 (configuration not stated) |
| 236 °C | CC(=O)c1ccc2[nH]c(=O)oc2c1 |
| 230 °C | O=C(Oc1cc(Cl)cc(Cl)c1)c1ccc(C(=O)Oc2cc(Cl)cc(Cl)c2)cc1 |
| 92 to 94 °C | O=C(c1ccccc1)c1cccc([N+](=O)[O-])c1 |
| 24 to 27 °C | O=C(c1ccc(F)cc1)C(F)(F)F |
| 150 °C | O=C(O)C1=Cc2ccccc2OC1 |
| 95 to 97 °C | N#CCc1ccc(OS(=O)(=O)c2ccc(Cl)cc2)cc1 |
| 214 to 216 °C | COc1cccc2cc(C(=O)O)c(=O)oc12 |
| 230 to 232 °C | O=[N+]([O-])c1ccc(-n2cc([N+](=O)[O-])c(-c3ccccc3)n2)cc1 |
| 34 to 36 °C | c1ccc(-c2cccs2)cc1 |
| 62 °C | Brc1ccc(OCc2ccccc2)cc1 |
| 129 °C | COc1ccc(C=CC(=O)C=Cc2ccc(OC)cc2)cc1 |
| < 20 °C | Brc1ccccc1Oc1ccccc1 |
| 37 °C | CCOC(=O)Cc1ccccc1Br |
| 146 °C | Cc1ccc(C(=O)c2ccccc2C(=O)O)cc1 |

| melting point | SMILES |
| --- | --- |
| 137 °C | O=C(Cc1ccccc1)C(c1ccccc1)N1CCCCC1 (configuration not stated) |
| 142 °C | COc1ccccc1OCC(N)=O |
| 30 °C | CCN(CC)C(=O)c1ccccc1 |
| 194 to 198 °C | CCOC(=O)c1c(=S)ncn2c1[nH]c1ccccc12 |
| 214 °C | CCN(CC)c1ccc2cc(C(=O)c3cc4ccc(N(CC)CC)cc4oc3=O)c(=O)oc2c1 |
| 188 to 189 °C | Cc1nc(NC(=O)NS(=O)(=O)c2cccs2)nc(C)c1C |
| 137 to 139 °C | N#Cc1c(Cl)cccc1Oc1ccc(S(=O)(=O)Cl)cc1 |
| 104 to 106 °C | O=[N+]([O-])c1ccc2c(c1)c(CO)cn2Cc1ccccc1 |
| 161 °C | CC1Cc2ccccc2N1NC(=O)c1ccc(Cl)c(S(N)(=O)=O)c1 (configuration not stated) |
| 104 °C | O=[N+]([O-])c1c(O)ccc2ccccc12 |
| 86 to 87 °C | O=C(Cl)c1ccc2sccc2c1 |
| 131 °C | CC(=O)C(C(=O)c1ccccc1)c1cc(Cl)c([N+](=O)[O-])cc1[N+](=O)[O-] (configuration not stated) |
| 29 °C | CCOC(=O)c1cccc(N)c1 |
| 47.8 °C | CCC(Nc1ncnc(C)c1Cl)c1ccc(OC(F)F)cc1 (configuration not stated) |
| 178 °C | CC(=O)Oc1c(-c2ccccc2)n(C(C)=O)c2cc([N+](=O)[O-])ccc12 |
| 49 to 49.5 °C | CCCCc1ccc(/N=N/c2ccc(O)cc2)cc1 |
| 178 to 180 °C | Cc1nc(-c2ccc(S(=O)(=O)NN)cc2)c(-c2ccc(S(=O)(=O)NN)cc2)o1 |
| 58 °C | CCOC(=O)C(Cc1ccccc1)(Cc1ccccc1)C(C)=O |
| 88 to 89 °C | Brc1sc(-c2ccccc2)nc1-c1ccccc1 |
| 114 to 115 °C | ClCc1cc2ccccc2nc1Cl |
| 210 °C | CC(=O)c1ccc(C#N)c(S)n1 |

Continued, compound first:

| SMILES | melting point |
| --- | --- |
| CN1CCC(N(Cc2ccccc2)c2ccccc2)CC1 | 114 °C |
| CC1CC2C3CC(F)C4=CC(=O)C=CC4(C)C3C(O)CC2(C)C1C(=O)CO (configuration not stated) | 188 °C |
| Cc1cc(O)c(Cc2c(O)cc(C)oc2=O)c(=O)o1 | 248 to 250 °C |
| CC12CCC(C(O)=CC1=O)C2(C)C (configuration not stated) | 221 °C |
| O=C(O)/C=C/c1c(F)cccc1F | 124 to 125 °C |
| Nc1cc(Br)cc2cc[nH]c12 | 105 °C |
| CCC(=O)OC(Cc1ccccc1)(c1ccccc1)C(C)CN(C)C (configuration not stated) | 75 °C |
| CC(C)NCC(O)COc1cccc2c1C=CC2 (configuration not stated) | 88.5 °C |
| O=C(O)CCc1ccccc1Br | 96 to 98 °C |
| ClCCCOc1ccccc1 | 12 °C |
| CCOC(=O)c1cc(C(=O)OCC)[nH]n1 | 51 to 55 °C |
| CCCCCBr | -92.7 °C |
| O=Cc1csc2ccc(Cl)cc12 | 109 to 111 °C |
| C=C1C(=O)C23C4CC5C(C)(C=O)CCCC5(C(=O)O4)C2C(OC(C)=O)CC1C3O (configuration not stated) | 209 °C |
| O=C(CBr)c1cccc(C(=O)CBr)c1 | 91 °C |
| O=Cc1c[nH]c2ccc(Cl)cc12 | 211 °C |
| CCC(C)C1(CC)C(=O)NC(=S)NC1=O (configuration not stated) | 169 °C |
| C[Si](C)(Cl)O[Si](C)(C)O[Si](C)(C)Cl | -53 °C |
| CCN(CC)CCn1cnc2c1c(=O)n(C)c(=O)n2C | 75 °C |
| Cc1ccn2nc(S(=O)(=O)Nc3c(F)cccc3F)nc2n1 | 252 °C |
| O=C(O)c1cc([N+](=O)[O-])cc(C(F)(F)F)c1 | 130 °C |

| SMILES | melting point |
| --- | --- |
| CC(=O)c1c(C)c[nH]c1C | 138 °C |
| COC(=O)C(C)O (configuration not stated) | -66 °C |
| C[C@H](N)C(=O)O | 314 to 316 °C |
| CC1(C)OC(=O)C1(C)C | 132 °C |
| O=C(O)c1c(Cl)c(Cl)c(Cl)c(Cl)c1Cl | 209 °C |
| O=C1CCC(=O)N1c1ccccc1 | 156 °C |
| O=C1c2ccccc2C(=O)c2c1cc(O)c(O)c2O | 313 °C |
| O=P(O)(O)CCN(CP(c1ccccc1)c1ccccc1)CP(c1ccccc1)c1ccccc1 | 146 to 148 °C |
| C=CCSc1nc(C)n[nH]1 | 88 to 90 °C |
| CC(C)C(=O)Cl | -90 °C |
| BrC1Cc2ccccc2C1Br (configuration not stated) | 32 °C |
| c1ccc2cc3cc4ccccc4cc3cc2c1 | 357 °C |
| O=c1c2ccccc2[nH]c(=S)n1-c1ccccc1 | 309 to 311 °C |
| COc1c(Cl)c(Cl)c(Cl)c(Cl)c1OC | 90 °C |
| Oc1ccccc1N1CCCCC1 | 75 °C |
| NC1CCC1 | -4 °C |
| CCCCCCN1CC(C(=O)O)CC1=O (configuration not stated) | 42.5 °C |
| CC(=O)Oc1ccc(C(C)(C)c2ccc(OC(C)=O)cc2)cc1 | 86 to 91 °C |
| CCCCNC | -75 °C |
| O=[N+]([O-])c1cccnc1Oc1cncc(Cl)c1 | 104 to 105 °C |
| CCNc1nc(Cl)nc(NC(C)(C)C#N)n1 | 168 °C |

| SMILES | melting point |
| --- | --- |
| Cc1cccc2c1CC(C(=O)O)NC2 (racemic) | 316 to 318 °C |
| N=C(N)NCC(=O)O | 300 °C |
| CC(C)n1c(O)nnc1S | 167 to 170 °C |
| CC(C)(C)NCC(O)c1cc(O)cc(O)c1 (configuration not stated) | 119 °C |
| CC=C(OC)C(=O)O | 58 °C |
| Oc1ccc(Cl)cc1C1CCCCC1 | 59 to 60 °C |
| Nc1cc(C(F)(F)F)ccc1[N+](=O)[O-] | 100 °C |
| CN(N=O)C(N)=O | 121 °C |
| CC(O)COC(C)(C)C (configuration not stated) | -56 °C |
| N#Cc1nc[nH]c1C#N | 175 °C |
| CC(=O)N=c1sc(S(N)(=O)=O)nn1C | 214 °C |
| COc1cc(C)c(Cl)cc1S(N)(=O)=O | 170 °C |
| Cn1ccccc1=S | 89.5 °C |
| O=C(Nc1cccc([N+](=O)[O-])c1)C(C(F)(F)F)C(F)(F)F | 200 °C |
| CN(C(=O)C(F)(F)C(F)(F)C(F)(F)C(F)(F)C(F)(F)C(F)(F)C(F)(F)C(F)(F)F)C1CCCCC1 | 57 °C |
| O=C(O)Cc1ccc(F)cc1F | 118 °C |
| O=C(O)C#Cc1cccc(C#CC(=O)O)c1 | 209 °C |
| Cc1ccc(-c2ccc(C=C3C(=O)NC(=O)NC3=O)o2)cc1 | 265 °C |
| Cc1cc([N+](=O)[O-])ccc1I | 102 °C |
| CCOC(=O)c1cn2nc(OP(=S)(OCC)OCC)cc2nc1C | 51 °C |
| Ic1ccccc1I | 27 °C |

| SMILES | melting point |
| --- | --- |
| O=C1C(Cl)=C(Cl)C(=O)N1c1ccc(F)cc1 | 241 °C |
| O=C(Cc1cc(CC(=O)Nc2ccccc2)c([N+](=O)[O-])cc1[N+](=O)[O-])Nc1ccccc1 | 267 °C |
| O=C1CCCCC1C1=CCCCC1 (configuration not stated) | -78 °C |
| COC(=O)CCC(C)C1CCC2C3C(OC(C)=O)CC4CC(OC(C)=O)CCC4(C)C3CCC12C (configuration not stated) | 185 to 186 °C |
| O=C1N[C@H]2CC[C@@H]1C2 | 76.2 °C |
| O=C1CCC2C3CCC(=O)C3C12 (configuration not stated) | 65 to 69 °C |
| CN(C)c1ccc(C=Nc2n[nH]c(N=Cc3ccc(N(C)C)cc3)c2Cc2ccc(Cl)cc2)cc1 | 260 to 262 °C |
| Cc1c(CC(=O)O)sc2ccc(Cl)cc12 | 177 to 178 °C |
| Cc1cc(C(C)(C)C)ccc1O | 27.5 °C |
| Cc1ccccc1N1CCN(CCc2nnc3n2CCCC3)CC1 | 158 °C |
| Cn1c(=O)c2[nH]c(=O)[nH]c2n(C)c1=O | 412 to 415 °C |
| CCC1(OC(C)=O)CCC2(C)C(CCC3C4CCC(=O)C4(C)CCC32)C1 (configuration not stated) | 150 to 152 °C |
| C1CCN(CCN2CCCCC2)CC1 | -0.5 °C |
| O=[N+]([O-])c1cc2c(cc1C/C(=N/Nc1ccccc1)c1ccccc1)n1n(-c3ccccc3)n21 | 197 to 198 °C |
| CCOC(=O)c1c(N)sc2c1CCC2 | 90 to 94 °C |
| Nc1cccnc1Cl | 78 °C |
| CCCCC(=O)OCC(=O)C1(O)Cc2c(O)c3c(c(O)c2C(OC2CC(NC(=O)C(F)(F)F)C(O)C(C)O2)C1)C(=O)c1c(OC)cccc1C3=O (configuration not stated) | 136 °C |
| CC(=O)OCC(=O)C1(O)CCC2C3CC(C)C4=CC(=O)C=CC4(C)C3C(O)CC21C (configuration not stated) | 206 °C |
| NC(=O)Cc1ccc(F)cc1Cl | 171 to 173 °C |
| Nc1n[nH]c2ccc(C(F)(F)F)cc12 | 135 °C |
| CCCCOCCOCCOC(=O)CCCCC(=O)OCCOCCOCCCC | -47 °C |
